Article doi:10.1101/2025.11.19.689330v1 (bioRxiv, 2025)

What was measured:
Format in all cases: cell-based, human
[1] = test system: Golgi of HeLa cells; assay: Time-lapse CLSM of Golgi fluorescence build-up; conditions: over 24 minutes
[2] = test system: Golgi of HeLa cells; assay: CLSM Golgi labeling at ultralow concentrations; conditions: 4 hours
[3] = test system: Golgi of HeLa cells; assay: FRAP assay at the Golgi; conditions: 500 nM, after 30-minute treatment
[4] = test system: Golgi of HeLa cells; assay: FRET co-assembly of 2 with quencher 7, Golgi fluorescence over 24 minutes; conditions: 2 (10 nM) with 7 (5, 10, 20 nM) or UBQ2-COOH (10, 20 nM)
[5] = test system: Golgi of HeLa cells; assay: BFA-induced Golgi disassembly in cells prelabeled with 2; conditions: HeLa cells prelabeled with 2 (10 nM, 30 min), BFA 10 μM

CCCCCCCCCCCCC/C=C/[C@@H](O)[C@H](CO)NC(=O)CCCCC1=[N+]2C(=Cc3c(C)cc(C)n3[B-]2(F)F)C=C1 [BODIPY-C5-Ceramide]
Golgi fluorescence in time-lapse imaging at 10 nM [1]: no significant Golgi fluorescence
Golgi fluorescence at 10 nM ([2]; 10 nM): very dim fluorescence at the Golgi
Golgi localization at picomolar concentrations ([2]; picomolar concentrations (500 pM)): no detectable Golgi localization
immobile fraction (IMf) at the Golgi [3]: 0.52

COc1cc(N=Nc2ccc([N+](=O)[O-])cc2)c(OC)cc1N=Nc1ccc(N(C)CCCC(=O)O)cc1 [UBQ2]
effect on Golgi fluorescence of 2 on co-treatment [4]: did not diminish Golgi fluorescence

C[C@H]1CCC/C=C/[C@@H]2C[C@H](O)C[C@H]2[C@H](O)/C=C/C(=O)O1 [BFA, brefeldin A]
time at which the Golgi begins to lose its defined morphology [5]: 5.5 minutes
time at which the Golgi collapses into the ER [5]: 6.5 min
